From ChEMBL document CHEMBL1151008, “Synthesis and evaluation of 4-5-dehydro-5-fluoroaristeromycins as S-adenosyl-L-homocysteine (AdoHcy) hydrolase inhibitors” (Bioorg Med Chem Lett, 1992)

Legend:
[1] = target: T1, Adenosylhomocysteinase (Rattus norvegicus) (UniProt P10760)
T1 sequence (whole entry): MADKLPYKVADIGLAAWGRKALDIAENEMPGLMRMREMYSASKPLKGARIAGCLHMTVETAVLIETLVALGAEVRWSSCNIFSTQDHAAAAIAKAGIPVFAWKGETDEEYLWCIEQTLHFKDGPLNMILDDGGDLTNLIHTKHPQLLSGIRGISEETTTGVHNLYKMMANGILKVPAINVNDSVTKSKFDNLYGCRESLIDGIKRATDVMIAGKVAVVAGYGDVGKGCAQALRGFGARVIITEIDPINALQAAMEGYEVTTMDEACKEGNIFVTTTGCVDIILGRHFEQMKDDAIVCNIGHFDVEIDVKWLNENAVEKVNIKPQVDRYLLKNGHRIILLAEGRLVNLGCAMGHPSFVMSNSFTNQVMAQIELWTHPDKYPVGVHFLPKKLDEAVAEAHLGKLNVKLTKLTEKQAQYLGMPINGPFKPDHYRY
Description: (§1) Rate constant was evaluated against S-adenosyl-homocysteine hydrolase

[2] = target: T2, Adenosylhomocysteinase (Rattus norvegicus, UniProt P10760); experiment: Compound was tested for its inhibitory activity against recombinant rat liver S-adenosyl-homocysteine hydrolase
T2 sequence (P10760 whole entry): T1 sequence (whole entry)

[3] = target: T1, Adenosylhomocysteinase (Rattus norvegicus); remark: listed apart in the source
Description: as §1

| k2 [1] [min⁻¹] | Ki [2] [µM] | k2 [3] [min⁻¹] | Compound |
| --- | --- | --- | --- |
| 0.082 | 0.039 | – | Nc1ncnc2c1ncn2[C@@H]1O/C(=C\F)[C@@H](O)[C@H]1O |
| 0.05 | 0.087 | – | Nc1ncnc2c1ncn2[C@@H]1C/C(=C\F)[C@@H](O)[C@H]1O |
| 0.05 | 0.04 | – | Nc1ncnc2c1ncn2[C@@H]1O/C(=C/F)[C@@H](O)[C@H]1O |
| – | 0.112 | 0.031 | Nc1ncnc2c1ncn2[C@@H]1C/C(=C/F)[C@@H](O)[C@H]1O |
